Drawing on PubChem BioAssay (NCI), this text covers TGI and GI50 for 23 molecules.

Molecules are shown by their SMILES.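 Five concentrations, 48 hours, 96-well plates. At the GI50, growth is halved. Definition used: TGI = concentration required for complete inhibition of growth.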

Holding throughout (test): NCI anticancer screen, dose series, 48 h
Experiment [1] has as its system SK-MEL-2 melanoma.
The test system of experiment [2] is K-562 leukemia.
For experiment [3], the system named is UACC-62 melanoma.
Experiment [4] concerns A498 renal.
The subject of experiment [5] is OVCAR-8 ovarian.
In experiment [6] the test system is OVCAR-5 ovarian.
The test system of experiment [7] is A549 NSCLC.
For experiment [8], the system named is EKVX NSCLC.
The subject of experiment [9] is SF-268 CNS.

As to `CN(c1ccccc1)c1c(Cl)c(=O)oc2c1ccc1occc12`, the TGI in experiment [1], in experiment [2], in [3], in experiment [4], in experiment [5] and in experiment [6] was over 100 µM each time. In addition, the TGI in [7] and in [8] was over 100 µM in each case.

Consider `C=CCc1cc(OC)c2c(c1)C(OC)CC(c1ccc(OC)c(OC)c1)O2` (stereo unspecified), for which the TGI in experiment [1], in [2], in experiment [3], in experiment [4], in [5] and in experiment [6] was over 100 µM throughout. For the same molecule, the TGI in experiment [9], in experiment [7] and in experiment [8] was over 100 µM in each case.

`CC1(C)C(=O)C(C)(C)C1=S`: the TGI in experiment [1], in experiment [2], in experiment [3], in experiment [4], in experiment [5] and in experiment [6] was over 100 µM throughout. Also, the TGI in experiment [9], in experiment [7] and in experiment [8] was over 100 µM in each case.

For the molecule `O=C(CC(Cl)=C(Cl)Cl)c1cccc(Cl)c1Cl`, the GI50 in experiment [1] was over 100 µM; in [3] it was 52.4 µM; in experiment [4], over 100 µM; in experiment [5] it was over 100 µM; in experiment [6], over 100 µM; in [9], over 100 µM. Further, the GI50 is over 100 µM in experiment [7] and 57.7 µM in [8]. Besides, the TGI in [1], in [3], in experiment [4], in experiment [5], in [6] and in experiment [9] was over 100 µM throughout. Moreover, the TGI in [7] and in experiment [8] was over 100 µM each time.

`COc1cc(CCc2ccc(N)cc2)cc(OC)c1OC`: the TGI in experiment [1] is 82.6 µM; in experiment [2], over 100 µM; in experiment [3], over 89.8 µM; in experiment [4], over 100 µM; in [5], over 100 µM; in experiment [6], over 100 µM. Also, the TGI in experiment [9], in [7] and in experiment [8] was over 100 µM each time.

Take `CCOC(=O)C1(C)CCCCC(=O)N1` (stereo unspecified): the TGI in experiment [2], in experiment [3], in experiment [5], in [9], in experiment [7] and in experiment [8] was over 100 µM in each case.

`c1ccc2c(c1)cc1n2CC2CN=NC12` (stereo unspecified): the TGI in experiment [1], in [2], in experiment [3], in [4], in [5] and in experiment [6] was over 100 µM in each case. Moreover, the TGI in [9], in experiment [7] and in [8] was over 100 µM throughout.

Take `Nc1c(Cl)ncnc1NCCCNc1ncnc(Cl)c1N`: the TGI in [1], in experiment [2], in experiment [3], in [4], in experiment [5] and in [6] was over 100 µM each time. For the same molecule, the TGI in experiment [9], in experiment [7] and in [8] was over 100 µM in each case.

As to `CC(SC(=O)Nc1ccc(N=Nc2ccccc2)cc1)C(=O)O` (stereo unspecified), the TGI in [1], in experiment [2], in experiment [3], in experiment [4], in experiment [5] and in experiment [6] was over 100 µM throughout. Also, the values for the TGI in experiment [9], in experiment [7] and in [8] were 48.9 µM, over 100 µM and over 100 µM, respectively.

Turning to `ClC(Cl)[Si]12OCCN(CCO1)CCO2`, the TGI in experiment [1], in [2], in experiment [3], in experiment [4], in experiment [5] and in experiment [6] was over 100 µM throughout. Besides, the TGI in [9] and in experiment [7] was over 100 µM throughout.

Turning to `CCOc1ccc(NC(=O)CC2C(=O)Nc3ccccc3S2(=O)=O)cc1` (stereo unspecified), the TGI in experiment [1], in experiment [2], in experiment [4], in experiment [5], in [6] and in experiment [9] was over 100 µM in each case. The TGI in experiment [7] and in experiment [8] was over 100 µM in each case.

For the molecule `CC(=O)NNc1nc(C)c(C(=O)NNC(=O)C(=O)Nc2ccc(Cl)cc2Cl)s1`, the TGI in experiment [1] was over 100 µM; in experiment [2], 50.2 µM; in [3], 57.4 µM; in [5], over 100 µM; in experiment [6], over 100 µM; in experiment [9], 78.6 µM. Besides, the TGI in experiment [7] and in experiment [8] was over 100 µM throughout.

As for `CN1c2ccccc2N(C(=O)c2ccccc2)C(CC(=O)O)c2cccn21` (stereo unspecified), the TGI in experiment [1], in [2], in experiment [3], in [4], in experiment [5] and in [6] was over 100 µM throughout. Also, the TGI in [9], in [7] and in experiment [8] was over 100 µM each time.

`Cc1c(/C=N/N(C)C)oc2c1cc(O)c1ncccc12`: the TGI was 44.5 µM in [1]; over 100 µM in [2]; 45.9 µM in [3]; 82 µM in [4]; 74.2 µM in [5]; over 100 µM in [6]. Moreover, the TGI is over 100 µM in experiment [9], over 100 µM in experiment [7] and 6.37 µM in [8].

In the case of `Cn1nc(-c2ccccc2)c2c(/C=C/c3ccccc3)onc2c1=O`, the TGI in experiment [1], in experiment [2], in experiment [3], in [4], in [5] and in [6] was over 100 µM throughout. The TGI in experiment [9], in [7] and in experiment [8] was over 100 µM throughout.

In the case of `CC(C)(C)C(C#N)(C#N)c1ccc(C(C#N)(C#N)C(C)(C)C)nn1`, the TGI in experiment [1], in [2], in experiment [3], in experiment [5], in experiment [6] and in [9] was over 100 µM in each case. The TGI in experiment [7] and in experiment [8] was over 100 µM each time.

Take `Cc1ccc(S(=O)(=O)N/N=C(/c2nc3ccc([N+](=O)[O-])cc3[nH]c2=O)C(O)c2ccc(C(O)/C(=N\NS(=O)(=O)c3ccc(C)cc3)c3nc4ccc([N+](=O)[O-])cc4[nH]c3=O)cc2)cc1` (stereo unspecified): the TGI in experiment [1], in experiment [2], in experiment [3], in [4], in experiment [5] and in [6] was over 100 µM each time. Also, the TGI in experiment [7] and in [8] was over 100 µM throughout.

As to `COc1cccc(-c2cc(=O)c3ccccc3[nH]2)c1`, the TGI is over 100 µM in experiment [1]; over 100 µM in experiment [2]; over 100 µM in experiment [3]; over 100 µM in experiment [4]; over 72.7 µM in experiment [5]; over 100 µM in experiment [6]. Further, the TGI in experiment [9], in experiment [7] and in [8] was over 100 µM in each case.

For the molecule `CCSc1c2ccccc2c(-c2nc(F)nc(F)n2)n1CCc1ccccc1`, the TGI in [1], in [2], in experiment [4], in experiment [6], in experiment [9] and in experiment [7] was over 100 µM throughout. In [8], this molecule returned a TGI of over 100 µM.

With `C[C@]12CCC3[C@@H](CC[C@@H]4c5nonc5CC[C@]34C)C1CC[C@@H]2O` (stereo partly specified), the TGI is 48.3 µM in experiment [1]; over 100 µM in [2]; over 100 µM in experiment [3]; 62.7 µM in [4]; over 100 µM in [5]; over 100 µM in experiment [6]. Further, the values for the TGI in experiment [9], in experiment [7] and in experiment [8] were over 100 µM, 85.2 µM and 75.5 µM, respectively.

Consider `Brc1ccc2ns[s+]c2c1`, for which the TGI in experiment [1] is over 100 µM; in experiment [2], over 100 µM; in experiment [3] it was over 20.5 µM; in [4], over 100 µM; in experiment [5], over 100 µM; in experiment [6], over 100 µM. Further, the TGI in experiment [9], in experiment [7] and in [8] was over 100 µM in each case.

In the case of `NC(=O)NC1C(C(N)=O)N(Cc2ccccc2)C(=O)N1Cc1ccccc1` (stereo unspecified), the TGI in [1], in experiment [2], in experiment [3], in experiment [5], in experiment [6] and in experiment [9] was over 100 µM throughout. In addition, the TGI in experiment [7] and in experiment [8] was over 100 µM each time.

`CC1=C(C(=O)Nc2cc(F)c(F)cc2F)C(c2ccc([N+](=O)[O-])cc2)C(C(=O)Nc2cc(F)c(F)cc2F)=C(C)N1`: the TGI in experiment [1] is over 100 µM; in experiment [2], over 100 µM; in experiment [4] it was 87.1 µM; in experiment [5] it was over 100 µM; in experiment [6], over 100 µM; in experiment [9] it was over 100 µM. The TGI in experiment [7] and in experiment [8] was over 100 µM each time.
